Reference: ChEMBL document CHEMBL5625242, “Discovery of brain permeable 2-Azabicyclo[2.2.2]octane sulfonamides as a novel class of presenilin-1 selective γ-secretase inhibitors” (Eur J Med Chem, 2023)

How the values were obtained:
[1] = Inhibition of human PSEN1/APH1A expressed in MEF cells with Psen1/2 double knockout/Aph1ABC triple knockout by ELISA; type: cell-based
[2] = Inhibition of human PSEN1/APH1B expressed in MEF cells with Psen1/2 double knockout/Aph1ABC triple knockout by ELISA; type: cell-based
[3] = Inhibition of human PSEN2/APH1A expressed in MEF cells with Psen1/2 double knockout/Aph1ABC triple knockout by ELISA; type: cell-based
[4] = Inhibition of human PSEN2/APH1B expressed in MEF cells with Psen1/2 double knockout/Aph1ABC triple knockout by ELISA; type: cell-based
[5] = Metabolic stability in human liver microsomes assessed as intrinsic clearance; type: ADME, Microsome; conditions: liver microsomes, read-out: CLH
[6] = Metabolic stability in mouse liver microsomes assessed as intrinsic clearance; type: ADME, Microsome; conditions: liver microsomes, read-out: CLH
Homo sapiens [7] = species on record: Homo sapiens; experiment: Selectivity ratio of IC50 for human PSEN2/APH1A expressed in MEF cells with Psen1/2 double knockout/Aph1ABC triple knockout to IC50 for human PSEN1/APH1B expressed in MEF cells with Psen1/2 double knockout/Aph1ABC triple knockout; type: cell-based
Homo sapiens [8] = species on record: Homo sapiens; experiment: Selectivity ratio of IC50 for human PSEN2/APH1B expressed in MEF cells with Psen1/2 double knockout/Aph1ABC triple knockout to IC50 for human PSEN1/APH1B expressed in MEF cells with Psen1/2 double knockout/Aph1ABC triple knockout; type: cell-based
Homo sapiens [9] = species on record: Homo sapiens; experiment: Selectivity ratio of IC50 for human PSEN1/APH1A expressed in MEF cells with Psen1/2 double knockout/Aph1ABC triple knockout to IC50 for human PSEN1/APH1B expressed in MEF cells with Psen1/2 double knockout/Aph1ABC triple knockout; type: cell-based
MEF = experiment: Inhibition of human PSEN1/APH1B expressed in MEF cells with Psen1/2 double knockout/Aph1ABC triple knockout at 10 uM by ELISA relative to control; type: cell-based

Row | SMILES | IC50 [1] | IC50 [2] | IC50 [3] | IC50 [4] | microsomal CLint [5] | microsomal CLint [6] | Ratio IC50 (Homo sapiens [7]) | Ratio IC50 (Homo sapiens [8]) | Ratio IC50 (Homo sapiens [9]) | inhibition (MEF)
1 | N#Cc1ccc([C@@H]2[C@@H]3CC[C@@H](C[C@@H]3O)N2S(=O)(=O)c2ccc(Cl)cc2)cn1 (racemic) | 0.067 µM | 0.012 µM | 0.741 µM | 2.18 µM | 111 µL/min/mg | 118 µL/min/mg |  |  |  | 
2 | O=C1C[C@@H]2CC[C@H]1[C@@H](c1ccc(C(F)(F)F)cc1)N2S(=O)(=O)c1ccc(Cl)cc1 (racemic) | 0.316 µM | 0.034 µM | > 10 µM | > 5 µM |  |  | > 150 | > 150 | 9 | 
3 | O=C1C[C@@H]2CC[C@H]1[C@@H](c1cc(F)ccc1F)N2S(=O)(=O)c1ccc(Cl)s1 (racemic) | 7.08 µM | 0.512 µM | > 10 µM | > 10 µM |  |  |  |  | 13 | 
4 | N#Cc1ccc(S(=O)(=O)N2[C@H]3CC[C@H](C(=O)C3)[C@H]2c2ccc(C(F)(F)F)cc2)cc1 (racemic) | > 10 µM | 1.55 µM | > 10 µM | > 10 µM |  |  |  |  | > 40 | 
5 | O=S(=O)(c1ccc(Cl)cc1)N1[C@H]2CC[C@@H]([C@H]1c1ccc(C(F)(F)F)cc1)[C@@H](O)C2 (racemic) [listing 1 of 2 here] |  |  |  |  |  |  | > 390 | > 330 | > 5 | 
6 | CCOC(=O)Nc1ccc([C@@H]2[C@@H]3CC[C@@H](CC3=O)N2S(=O)(=O)c2ccc(Cl)cc2)cc1 (racemic) | 3.23 µM | 0.288 µM | 6.17 µM | 6.46 µM |  |  | > 20 | > 20 | > 11 | 
7 | O=C1C[C@@H]2CC[C@H]1[C@H](c1cc(F)ccc1F)N2S(=O)(=O)c1ccc(Cl)cc1 |  |  |  |  |  |  |  |  |  | 45%
8 | O=S(=O)(c1ccc(Cl)cc1)N1[C@H]2CC[C@@H]([C@H]1c1ccc(C(F)(F)F)cc1)[C@@H](O)C2 (racemic) [listing 2 of 2 here] | 0.0417 µM | 0.0072 µM | 2.82 µM | 2.45 µM | > 347 µL/min/mg | > 347 µL/min/mg |  |  |  | 
9 | COc1ccc(S(=O)(=O)N2[C@H]3CC[C@H](C(=O)C3)[C@H]2c2ccc(C(F)(F)F)cc2)cc1 (racemic) | > 10 µM | 1.45 µM | > 10 µM | > 10 µM |  |  |  |  | > 40 | 
